# Source: the supplement of paper PMC10307832
# Compound: N#CC1(c2ccc(NC(=O)c3cccnc3NCc3ccncc3)cc2)CCCC1 [Apatinib] + CC(=O)Nc1cccc(-n2c(=O)n(C3CC3)c(=O)c3c(Nc4ccc(I)cc4F)n(C)c(=O)c(C)c32)c1 [Trametinib] (partner 0.02 µM)
# Assay: relative viability (nuclei count vs DMSO), 5 days (fraction); higher = more cells survive
# Conditions: first compound 8 µM
# Outline: (§1)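 Lung cancer cell lines, seeded in 1536-well plates, were treated the following day by pin tool with a single drug or with five library-drug doses (not always all listed) in √10 steps on top of a fixed anchor-drug dose. Cells were fixed and nuclei stained in one step after 5 days, and nuclei were counted. Relative viability is the nuclei count for treated wells divided by that for vehicle wells, reported as medians of duplicate plates.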
row,Cell Line,relative viability
1,SW 900,0.642

# Compound: N#CC1(c2ccc(NC(=O)c3cccnc3NCc3ccncc3)cc2)CCCC1 [Apatinib] + CCNC(=O)c1noc(-c2cc(C(C)C)c(O)cc2O)c1-c1ccc(CN2CCOCC2)cc1 [Luminespib] (partner 0.01 µM)
# Assay: as above
# Conditions: first compound 0.08 µM
# Outline: as §1
row,Cell Line,relative viability
1,201T,0.983
2,A-427,0.924
3,BEN,0.478
4,CAL-12T,0.565
5,COR-L23,0.687
6,COR-L 105,0.796
7,ChaGo-K-1,0.618
8,EKVX,0.841
9,EMC-BAC-2,1.22
10,EPLC-272H,0.898
11,H3255,0.791
12,HARA,0.928
13,HCC-15,0.364
14,HCC-44,0.98
15,HCC-827,0.765
16,HOP-62,1.01
17,LC-2-ad,1.08
18,LCLC-97TM1,0.761
19,LCLC-103H,0.969
20,LK-2,0.185
21,LOU-NH91,0.354
22,LU99A,0.294
23,LXF-289,0.644
24,NCI-H23,0.23
25,NCI-H522,1.14
26,NCI-H1563,0.534
27,NCI-H1623,0.402
28,NCI-H2170,0.841
29,NCI-H2342,0.677
30,SW 900,0.171

# Same assay, conditions: first compound 0.253 µM
row,Cell Line,relative viability
1,201T,1.02
2,A-427,0.779
3,ABC-1,0.907
4,BEN,0.348
5,CAL-12T,0.315
6,COR-L23,0.643
7,COR-L 105,0.789
8,ChaGo-K-1,0.679
9,EKVX,0.857
10,EMC-BAC-2,1.29
11,H3255,0.782
12,HARA,0.875
13,HCC-15,0.241
14,HCC-44,1.21
15,HCC-827,0.704
16,HOP-62,0.838

row,Cell Line,relative viability
1,LC-2-ad,1.16
2,LCLC-97TM1,0.833
3,LCLC-103H,0.949
4,LK-2,0.178
5,LOU-NH91,0.363
6,LU99A,0.302
7,LXF-289,0.857
8,NCI-H23,0.22
9,NCI-H522,1.08
10,NCI-H1563,0.536
11,NCI-H1623,0.429
12,NCI-H1650,0.185
13,NCI-H2170,0.649
14,NCI-H2342,0.552
15,SW 900,0.178

# Same assay, conditions: first compound 0.8 µM
row,Cell Line,relative viability
1,201T,1.12
2,A-427,0.928
3,ABC-1,0.646
4,BEN,0.385
5,CAL-12T,0.261
6,COR-L23,0.702
7,COR-L 105,0.896
8,ChaGo-K-1,0.661
9,EKVX,0.851
10,EMC-BAC-2,1.14
11,EPLC-272H,0.92
12,H3255,0.811
13,HARA,0.419
14,HCC-15,0.302
15,HCC-44,1.03
16,HCC-827,0.391

row,Cell Line,relative viability
1,HOP-62,0.77
2,LC-2-ad,1.01
3,LCLC-97TM1,0.863
4,LCLC-103H,0.864
5,LK-2,0.187
6,LOU-NH91,0.386
7,LU99A,0.221
8,LXF-289,0.633
9,NCI-H23,0.211
10,NCI-H522,1.27
11,NCI-H1563,0.533
12,NCI-H1623,0.465
13,NCI-H1650,0.217
14,NCI-H2170,0.609
15,NCI-H2342,0.81
16,SW 900,0.175

# Same assay, conditions: first compound 2.53 µM
row,Cell Line,relative viability
1,201T,1
2,A-427,0.72
3,ABC-1,0.554
4,BEN,0.336
5,CAL-12T,0.882
6,COR-L23,0.628
7,COR-L 105,0.697
8,ChaGo-K-1,0.519
9,EKVX,0.821
10,EMC-BAC-2,1.09
11,EPLC-272H,0.329
12,H3255,0.644
13,HARA,0.6
14,HCC-15,0.317
15,HCC-44,1.02
16,HCC-827,0.777

row,Cell Line,relative viability
1,HOP-62,0.714
2,LC-2-ad,1.01
3,LCLC-97TM1,0.605
4,LCLC-103H,0.957
5,LK-2,0.209
6,LOU-NH91,0.356
7,LU99A,0.241
8,LXF-289,0.652
9,NCI-H23,0.2
10,NCI-H522,1.07
11,NCI-H1563,0.548
12,NCI-H1623,0.461
13,NCI-H1650,0.179
14,NCI-H2170,0.676
15,NCI-H2342,0.702
16,SW 900,0.185

# Same assay, conditions: first compound 8 µM
row,Cell Line,relative viability
1,201T,0.855
2,A-427,0.8
3,ABC-1,0.553
4,BEN,0.229
5,CAL-12T,0.661
6,COR-L23,0.509
7,COR-L 105,0.67
8,ChaGo-K-1,0.564
9,EKVX,0.816
10,EMC-BAC-2,0.987
11,EPLC-272H,0.201
12,H3255,0.829
13,HARA,0.678
14,HCC-15,0.316
15,HCC-44,0.751
16,HCC-827,0.566

row,Cell Line,relative viability
1,HOP-62,0.692
2,LC-2-ad,0.917
3,LCLC-97TM1,0.297
4,LCLC-103H,0.735
5,LK-2,0.188
6,LOU-NH91,0.354
7,LU99A,0.213
8,LXF-289,0.743
9,NCI-H23,0.213
10,NCI-H522,0.955
11,NCI-H1563,0.543
12,NCI-H1623,0.476
13,NCI-H1650,0.168
14,NCI-H2170,0.621
15,NCI-H2342,0.726
16,SW 900,0.177

# Compound: N#CC1(c2ccc(NC(=O)c3cccnc3NCc3ccncc3)cc2)CCCC1 [Apatinib] + C[C@]1(O)C[C@@H](c2nc(-c3ccc4ccc(-c5ccccc5)nc4c3)c3c(N)nccn32)C1 [Linsitinib] (partner 1 µM)
# Assay: as above
# Conditions: first compound 0.08 µM
# Outline: as §1
row,Cell Line,relative viability
1,201T,1.03
2,A549,0.534
